# Source: PubChem BioAssay (NCI)
# Several values for one entry are separate records, joined by “and”; a condition that tells them apart may be missing. Equal values may be shown once.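 These data come from cells grown in 96-well plates and exposed to compound for 48 hours at five concentrations. GI50: concentration for 50% inhibition of growth. The concentration for full growth arrest is given as TGI.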
# Experiments:
# Test in all cases: NCI-60 cell line screen, 48 h
# UO-31 renal = tested on: UO-31 renal
# OVCAR-3 ovarian = tested on: OVCAR-3 ovarian
# NCI-H23 lung = tested on: NCI-H23 lung
# SK-MEL-5 melanoma = tested on: SK-MEL-5 melanoma
# SK-OV-3 ovarian = tested on: SK-OV-3 ovarian
# MCF7 breast = tested on: MCF7 breast
# ACHN renal = tested on: ACHN renal
# HCT-116 colon = tested on: HCT-116 colon
# SF-539 CNS = tested on: SF-539 CNS
# NCI/ADR-RES ovarian = tested on: NCI/ADR-RES ovarian
# HT29 colon = tested on: HT29 colon
smiles,measurement,setting,value
CC1CSc2nc3[nH]c(=S)[nH]c3c(=O)n2C1 (stereo not given),TGI,UO-31 renal,> 100 µM
same,TGI,OVCAR-3 ovarian,> 100 µM
same,TGI,NCI-H23 lung,> 100 µM
same,TGI,SK-MEL-5 melanoma,> 100 µM
same,TGI,SK-OV-3 ovarian,> 100 µM
same,TGI,MCF7 breast,> 100 µM
same,TGI,ACHN renal,> 100 µM
same,TGI,HCT-116 colon,> 100 µM
same,TGI,SF-539 CNS,> 100 µM
same,TGI,NCI/ADR-RES ovarian,> 100 µM
CC1=CC[C@H](C)C(C)(C)C1/C=C/C(C)=C/CC[C@@]1(CO)[C@H](CCCO)/C(=C(/C)C=O)CC[C@]1(C)O (stereo not given in full),TGI,UO-31 renal,21.2 µM
same,TGI,NCI-H23 lung,23 µM
same,TGI,SK-MEL-5 melanoma,4.26 µM
same,TGI,HT29 colon,12.1 µM
same,TGI,SK-OV-3 ovarian,39.9 µM
same,TGI,ACHN renal,16.6 µM
same,TGI,SF-539 CNS,20.8 µM
N#C[C@](CO)(NC(=O)OCc1ccccc1)C(F)F,TGI,UO-31 renal,> 100 µM
same,TGI,OVCAR-3 ovarian,> 100 µM
same,TGI,NCI-H23 lung,> 100 µM
same,TGI,SK-MEL-5 melanoma,> 100 µM
same,TGI,HT29 colon,> 100 µM
same,TGI,SK-OV-3 ovarian,> 100 µM
same,TGI,ACHN renal,> 100 µM
same,TGI,HCT-116 colon,> 100 µM
same,TGI,NCI/ADR-RES ovarian,> 100 µM
Cc1ccc(NNc2cc(=O)[nH]c(=O)[nH]2)cc1Cl,TGI,UO-31 renal,15.3 µM
same,TGI,OVCAR-3 ovarian,28 µM
same,TGI,NCI-H23 lung,31.1 µM
same,TGI,SK-MEL-5 melanoma,> 100 µM
same,TGI,HT29 colon,28.7 µM
same,TGI,SK-OV-3 ovarian,> 100 µM
same,TGI,ACHN renal,21.4 µM
same,TGI,HCT-116 colon,28.1 µM
same,TGI,SF-539 CNS,69.4 µM
same,TGI,NCI/ADR-RES ovarian,> 100 µM
C=CCC1(O)c2cccc(O)c2C(=O)c2cccc(O)c21 (stereo not given),TGI,UO-31 renal,52.8 µM
same,TGI,OVCAR-3 ovarian,59.7 µM
same,TGI,NCI-H23 lung,31.7 µM
same,TGI,SK-MEL-5 melanoma,26.4 µM
same,TGI,HT29 colon,64.1 µM
same,TGI,MCF7 breast,76.9 µM
same,TGI,ACHN renal,69.2 µM
same,TGI,HCT-116 colon,31.1 µM
same,TGI,SF-539 CNS,> 100 µM
same,TGI,NCI/ADR-RES ovarian,40.2 µM
CSc1nc(-c2cc3c(c(SC)n2)CCC3)cc2c1CCC2,TGI,UO-31 renal,> 100 µM
same,TGI,OVCAR-3 ovarian,> 100 µM
same,TGI,NCI-H23 lung,> 100 µM
same,TGI,SK-MEL-5 melanoma,> 100 µM
same,TGI,HT29 colon,> 100 µM
same,TGI,SK-OV-3 ovarian,> 100 µM
same,TGI,ACHN renal,> 100 µM
same,TGI,HCT-116 colon,> 100 µM
same,TGI,SF-539 CNS,> 100 µM
same,TGI,NCI/ADR-RES ovarian,> 100 µM
CCCC(=O)N[C@@H](Cc1cc(I)c(O)c(I)c1)C(=O)NCCCNCCCCNCCCNC(=O)[C@@H](N)CCCN=C(N)N,TGI,UO-31 renal,> 100 µM
same,TGI,OVCAR-3 ovarian,> 100 µM
same,TGI,NCI-H23 lung,> 100 µM
same,TGI,SK-MEL-5 melanoma,> 100 µM
same,TGI,HT29 colon,> 100 µM
same,TGI,ACHN renal,> 100 µM
same,TGI,HCT-116 colon,> 100 µM
same,TGI,SF-539 CNS,> 100 µM
COc1cccc(NC(=O)N/C(=C/c2ccc(N(CCC#N)CCC#N)cc2)NC(=O)c2cc([N+](=O)[O-])ccc2Cl)c1,TGI,UO-31 renal,> 100 µM
same,TGI,OVCAR-3 ovarian,> 100 µM
same,TGI,NCI-H23 lung,> 100 µM
same,TGI,SK-MEL-5 melanoma,> 100 µM
same,TGI,SK-OV-3 ovarian,> 100 µM
same,TGI,ACHN renal,> 100 µM
same,TGI,HCT-116 colon,> 100 µM
same,TGI,SF-539 CNS,> 100 µM
C/C(=N/NC(=S)N(Cc1ccccn1)Cc1ccccn1)c1cnccn1,TGI,UO-31 renal,0.525 µM
same,TGI,OVCAR-3 ovarian,12.6 µM
same,TGI,NCI-H23 lung,11.4 µM
same,TGI,SK-MEL-5 melanoma,> 37.9 µM
same,TGI,HT29 colon,10.3 µM
same,TGI,SK-OV-3 ovarian,4.27 µM
same,TGI,MCF7 breast,> 100 µM
same,TGI,ACHN renal,2.39 µM
same,TGI,HCT-116 colon,14.2 µM
O=C(/C=C/c1ccc(Cl)c(Cl)c1)CCN1CCN(CCC(=O)/C=C/c2ccc(Cl)c(Cl)c2)CC1,TGI,UO-31 renal,32.6 µM
same,TGI,OVCAR-3 ovarian,58.4 µM
same,TGI,SK-MEL-5 melanoma,38.2 µM
same,TGI,HT29 colon,46.8 µM
same,TGI,SK-OV-3 ovarian,> 100 µM
same,TGI,MCF7 breast,19.4 µM
same,TGI,ACHN renal,34.5 µM
same,TGI,HCT-116 colon,23.8 µM
same,TGI,SF-539 CNS,30.7 µM
same,TGI,NCI/ADR-RES ovarian,> 100 µM
N#Cc1nc(Cc2ccccc2)oc1N,TGI,UO-31 renal,> 100 µM
same,TGI,OVCAR-3 ovarian,> 100 µM
same,TGI,NCI-H23 lung,> 100 µM
same,TGI,SK-MEL-5 melanoma,> 100 µM
same,TGI,HT29 colon,> 100 µM
same,TGI,SK-OV-3 ovarian,> 100 µM
same,TGI,MCF7 breast,> 100 µM
same,TGI,ACHN renal,> 100 µM
same,TGI,HCT-116 colon,> 100 µM
same,TGI,SF-539 CNS,> 100 µM
C/C(=C1/N=C(c2cc([N+](=O)[O-])ccc2Cl)N(C2=CC=C(Cl)CC2)C1=O)c1cc2ccccc2oc1=O,TGI,UO-31 renal,> 100 µM
same,TGI,OVCAR-3 ovarian,> 100 µM
same,TGI,NCI-H23 lung,58.8 µM
same,TGI,SK-MEL-5 melanoma,> 100 µM
same,TGI,HT29 colon,> 100 µM
same,TGI,SK-OV-3 ovarian,> 100 µM
same,TGI,ACHN renal,> 100 µM
same,TGI,HCT-116 colon,> 100 µM
same,TGI,SF-539 CNS,> 100 µM
CSc1cc(Cl)c(C)cc1S(=O)(=O)NC(=O)NNc1ccccn1,TGI,OVCAR-3 ovarian,> 100 µM
same,TGI,SK-MEL-5 melanoma,> 100 µM
same,TGI,HT29 colon,> 100 µM
same,TGI,SK-OV-3 ovarian,> 100 µM
same,TGI,MCF7 breast,> 100 µM
same,TGI,ACHN renal,> 100 µM
same,TGI,HCT-116 colon,> 100 µM
same,TGI,SF-539 CNS,> 100 µM
same,TGI,NCI/ADR-RES ovarian,> 100 µM
COc1cc2cnc3c(c2cc1OC)Cc1cc2c(cc1-3)OCO2,GI50,UO-31 renal,< 19.3 nM
same,TGI,UO-31 renal,> 43.3 µM
same,TGI,NCI-H23 lung,24.6 µM
same,GI50,SK-MEL-5 melanoma,< 10 nM
same,TGI,SK-MEL-5 melanoma,5.39 µM
same,GI50,HT29 colon,< 10 nM
same,TGI,HT29 colon,73.4 µM
same,GI50,SK-OV-3 ovarian,20.3 nM
same,TGI,SK-OV-3 ovarian,26 µM
same,GI50,MCF7 breast,33.3 nM
same,TGI,MCF7 breast,> 81.8 µM
same,GI50,ACHN renal,< 14.3 nM
same,TGI,ACHN renal,19.4 µM
same,TGI,HCT-116 colon,> 50.3 µM
same,GI50,SF-539 CNS,< 13.2 nM
same,TGI,SF-539 CNS,31.8 µM
same,GI50,NCI/ADR-RES ovarian,< 10 nM
same,TGI,NCI/ADR-RES ovarian,> 81.5 µM
CCCN(CCC)C(=O)Cc1c2n(c3ccccc13)Cc1ccccc1-2,TGI,UO-31 renal,> 100 µM
same,TGI,OVCAR-3 ovarian,> 100 µM
same,TGI,NCI-H23 lung,> 100 µM
same,TGI,SK-MEL-5 melanoma,> 100 µM
same,TGI,HT29 colon,> 100 µM
same,TGI,SK-OV-3 ovarian,> 100 µM
same,TGI,ACHN renal,> 100 µM
same,TGI,HCT-116 colon,> 100 µM
same,TGI,SF-539 CNS,> 100 µM
O=[N+]([O-])c1cccc2nc3ccccc3c(NCCNCCO)c12,GI50,UO-31 renal,44.8 nM
same,TGI,UO-31 renal,0.392 µM and 0.192 µM
same,GI50,OVCAR-3 ovarian,11.4 nM
same,TGI,OVCAR-3 ovarian,0.0268 µM and 0.0556 µM
same,TGI,NCI-H23 lung,0.00448 µM
same,TGI,SK-MEL-5 melanoma,0.00391 µM
same,TGI,SK-OV-3 ovarian,0.293 µM and 0.377 µM
same,TGI,MCF7 breast,0.0373 µM and 0.0177 µM
same,TGI,ACHN renal,0.0422 µM and 0.0311 µM
same,TGI,HCT-116 colon,0.107 µM
same,GI50,SF-539 CNS,11.6 nM
same,TGI,SF-539 CNS,0.136 µM and 0.0384 µM
same,GI50,NCI/ADR-RES ovarian,911 nM
same,TGI,NCI/ADR-RES ovarian,2.15 µM and 14.9 µM
COc1ccc(/C=N/n2c(C)n[nH]c2=O)cc1,TGI,UO-31 renal,> 100 µM
same,TGI,OVCAR-3 ovarian,> 100 µM
same,TGI,NCI-H23 lung,> 100 µM
same,TGI,HT29 colon,> 100 µM
same,TGI,SK-OV-3 ovarian,> 100 µM
same,TGI,MCF7 breast,> 100 µM
same,TGI,ACHN renal,> 100 µM
same,TGI,HCT-116 colon,> 100 µM
same,TGI,SF-539 CNS,> 100 µM
same,TGI,NCI/ADR-RES ovarian,> 100 µM
COc1ccc(S(=O)Cc2cc(OC)ccc2OC)cc1 (stereo not given),TGI,UO-31 renal,> 100 µM
same,TGI,OVCAR-3 ovarian,> 100 µM
same,TGI,NCI-H23 lung,> 100 µM
same,TGI,HT29 colon,> 100 µM
same,TGI,SK-OV-3 ovarian,> 100 µM
same,TGI,MCF7 breast,> 100 µM
same,TGI,ACHN renal,> 100 µM
same,TGI,HCT-116 colon,> 100 µM
same,TGI,SF-539 CNS,> 100 µM
same,TGI,NCI/ADR-RES ovarian,> 100 µM
CCOC(=O)c1c(NC(=O)c2ccccc2)sc2c1CCC2,TGI,UO-31 renal,> 100 µM
same,TGI,OVCAR-3 ovarian,> 100 µM
same,TGI,NCI-H23 lung,> 100 µM
same,TGI,SK-MEL-5 melanoma,> 100 µM
same,TGI,HT29 colon,> 100 µM
same,TGI,MCF7 breast,> 100 µM
same,TGI,ACHN renal,> 100 µM
same,TGI,HCT-116 colon,> 100 µM
same,TGI,SF-539 CNS,> 100 µM
same,TGI,NCI/ADR-RES ovarian,> 100 µM
Cc1cc(S(N)(=O)=O)c(S/C(=N\Nc2ccc([N+](=O)[O-])cc2)c2ccc(Cl)cc2)cc1Cl,TGI,UO-31 renal,22 µM
same,TGI,OVCAR-3 ovarian,3.85 µM
same,TGI,NCI-H23 lung,4.91 µM
same,TGI,SK-MEL-5 melanoma,33.3 µM
same,TGI,HT29 colon,4.36 µM
same,TGI,SK-OV-3 ovarian,3.93 µM
same,TGI,MCF7 breast,4.59 µM
same,TGI,ACHN renal,10.4 µM
same,TGI,HCT-116 colon,> 100 µM
same,TGI,SF-539 CNS,4.19 µM
Cc1ccc(NC(=S)NNC(=O)c2cc(-c3ccccc3)nc3ccccc23)cc1C,TGI,UO-31 renal,36.3 µM
same,TGI,NCI-H23 lung,48.2 µM
same,TGI,SK-MEL-5 melanoma,34.4 µM
same,TGI,HT29 colon,49.2 µM
same,TGI,SK-OV-3 ovarian,32.9 µM
same,TGI,MCF7 breast,47.8 µM
same,TGI,ACHN renal,67.6 µM
same,TGI,HCT-116 colon,36.9 µM
same,TGI,SF-539 CNS,40.3 µM
same,TGI,NCI/ADR-RES ovarian,49.1 µM
